The text below walks through data of patent publication US11912650B2, “Bakuchiol derivatives, pharmaceutically acceptable salts thereof, and preparation method and use of the same” (priority 2020, dated 2024).

The test system of one data set is S. aureus ATCC29213. Briefly: Antibacterial activity assay (broth dilution MIC). Type of data set: cell-based. Particulars: Staphylococcus aureus, 37° C., 24 h, compounds 38, 44-45, 58-61, 63-64 with 0.05% Tween 80. The method, then:
(§1) Antibacterial activity assay. The antibacterial activities of all the compounds were determined according to a broth dilution method specified in Clinical and Laboratory Standards Institute (CLSI) guidelines. Bacterial cells were inoculated on a Mueller-Hinton agar (MHA) plate for overnight culture, and the concentration of the bacterial cells was adjusted to about 1×10^6 colony-forming units (CFU)/mL with phosphate buffered saline (PBS). First, a 1000 μg/mL stock solution (a final concentration of dimethyl sulfoxide (DMSO) was ≤2%) was prepared by dissolving a sample in DMSO/H2O. Then, the stock solution was diluted with Mueller-Hinton Broth (MHB) to an initial concentration of 100 μg/mL, and the sample solution (100 μL) was subjected to two-fold gradient dilution with MHB in a 96-well plate, to obtain 100 μg/mL to 0.78 μg/mL serial dilutions. Then, a bacterial suspension (100 μL) was added to each well of the 96-well plate and mixed with the test sample solution (100 μL). Among them, test systems for compounds 38, 44-45, 58-61 and 63-64 contained 0.05% of Tween 80. Finally, the 96-well plate was incubated at 37° C. for 24 hours. Absorbances at 600 nm at 0 and 24 h were measured. An minimum inhibitory concentration (MIC) value was defined as the lowest concentration where no visible bacterial growth occurred. All experiments were carried out in at least two duplicates, and biological repeatability could be achieved.
(In general: In broth dilution the organism is exposed to a series of concentrations in liquid medium.)

In the next data set the test system is E. coli ATCC25922. Briefly: Antibacterial activity assay (broth dilution MIC). Type of data set: cell-based. Particulars: Escherichia coli, 37° C., 24 h, compounds 38, 44-45, 58-61, 63-64 with 0.05% Tween 80. The method, then: as §1
The test system of the next data set is rabbit red blood cells. Briefly: Hemolytic activity assay. Type of data set: cell-based. Particulars: rabbit, 1 h. The method, then: Hemolytic activity assay. Rabbit red blood cells were centrifuged at 2500 rpm for 3 minutes and then washed twice with PBS. Subsequently, a 8% (v/v) cell suspension was prepared by resuspending the rabbit red blood cells with PBS. A sample was first dissolved in DMSO or PBS (a final concentration of DMSO was ≤0.5%), and then diluted with PBS to prepare two-fold gradient dilutions (400 μg/mL to 3.125 μg/mL). The rabbit red blood cell suspension ([…]) was mixed with the two-fold gradient dilutions ([…]) of the sample. Then, the mixture was added to a sterile 96-well plate, incubated at 37° C. for 1 hour, and then centrifuged at 2500 rpm for 5 minutes. Among them, test systems for compounds 38, 44-45, 58-61 and 63-64 contained 0.05% of Tween 80. The supernatant (100 μL) was transferred to a new 96-well plate. Absorbance at 576 nm was measured using a Biotek multifunctional microplate reader. The positive control group was treated with a 2% Triton X-100 solution, and the negative control group was treated with PBS or 0.5% DMSO. The hemolytic activity was calculated by the following equation: % hemolytic activity=[(Abssample−Absnegative control)/(Abspositive control−Absnegative control)]×100. All experiments were carried out in at least two duplicates, and biological repeatability could be achieved.

In a further data set the test system is MRSA N315. Briefly: Antibacterial activity assay (broth dilution MIC). The note with it: Staphylococcus aureus, 37° C., 24 h, compounds 38, 44-45, 58-61, 63-64 with 0.05% Tween 80. Type of data set: cell-based, methicillin-resistant Staphylococcus aureus. The method, then: as §1
The subject of the next data set is MRSA NCTC10442. Briefly: Antibacterial activity assay (broth dilution MIC). Type of data set: cell-based, methicillin-resistant Staphylococcus aureus. Particulars: Staphylococcus aureus, 37° C., 24 h, compounds 38, 44-45, 58-61, 63-64 with 0.05% Tween 80. The method, then: as §1
The subject of another data set is Gram-positive bacteria. Briefly: Antibacterial activity against Gram-positive bacteria (MIC summary). Particulars: 24 h, read-out: minimum inhibitory concentration (MIC) against Gram-positive bacteria. Type of data set: cell-based. The method, then:
as §1

In a further data set the test system is Gram-negative bacteria. In words: Antibacterial activity against Gram-negative bacteria (MIC summary). Particulars: 24 h; summary of tables 1 and 2. Type of data set: cell-based. The method, then:
as §1

In brackets after ≈: the same amount, converted by molar mass. Read-outs that look alike come from different tables or passages of the source. Where a SMILES comes first, the peptide text is derived from it. The star is where a group is joined. X1 = C=C[C@](C)(/C=C/c1ccc(OCC(=O)*)cc1)CCC=C(C)C

In the case of `C=C[C@](C)(/C=C/c1ccc(OCC(=O)N[C@@H](CCCNC(=N)N)C(=O)N[C@@H](CCCNC(=N)N)C(=O)N[C@@H](CCCNC(=N)N)C(=O)N[C@@H](CCCNC(=N)N)C(N)=O)cc1)CCC=C(C)C` [Compound 61] (X1-RRRR-NH2), the MIC in the data set on S. aureus ATCC29213 was 0.78 µg/mL (≈ 0.831 µM); in the data set with E. coli ATCC25922, 25 µg/mL (≈ 26.6 µM); with MRSA N315, 0.39 µg/mL (≈ 0.416 µM); against MRSA NCTC10442, 0.78 µg/mL (≈ 0.831 µM); in the data set with Gram-positive bacteria (summary of tables 1 and 2), 0.39 to 3.12 µg/mL (≈ 0.416 to 3.33 µM). Further, the “HC50 (concentration necessary to lyse 50% rabbit red blood cells)” value in the data set on rabbit red blood cells is reported as “more than 400 μg/mL”.
In the case of `C=C[C@@](C)(/C=C/c1ccc(OCCCCN(C)CCCNC)cc1)CCC=C(C)C` [Compound 24], the MIC with S. aureus ATCC29213 is 1.56 µg/mL (≈ 3.78 µM); against E. coli ATCC25922, 1.56 µg/mL (≈ 3.78 µM); against MRSA N315, 0.78 µg/mL (≈ 1.89 µM); against MRSA NCTC10442, 1.56 µg/mL (≈ 3.78 µM); in the data set on Gram-positive bacteria (summary of tables 1 and 2) it was 0.39 to 3.12 µg/mL (≈ 0.945 to 7.57 µM); against Gram-negative bacteria, 1.56 to 3.12 µg/mL (≈ 3.78 to 7.57 µM).
As to `C=C[C@](C)(/C=C/c1ccc(OCC(=O)N[C@@H](CCCNC(=N)N)C(=O)N[C@@H](CCCNC(=N)N)C(=O)N2CCN(c3ccc(N4C[C@H](CNC(C)=O)OC4=O)cc3F)CC2)cc1)CCC=C(C)C` [Compound 59], the MIC against S. aureus ATCC29213 was 0.78 µg/mL (≈ 0.825 µM); against E. coli ATCC25922, 1.56 µg/mL (≈ 1.65 µM); with MRSA N315, 0.78 µg/mL (≈ 0.825 µM); in the data set with MRSA NCTC10442 it was 0.78 µg/mL (≈ 0.825 µM); in the data set with Gram-positive bacteria (summary of tables 1 and 2), 0.39 to 3.12 µg/mL (≈ 0.413 to 3.31 µM); against Gram-negative bacteria, 1.56 to 3.12 µg/mL (≈ 1.65 to 3.31 µM).
For the molecule `C=C[C@](C)(/C=C/c1ccc(OCC(=O)N[C@@H](CCCNC(=N)N)C(=O)N[C@@H](CCCNC(=N)N)C(=O)N[C@@H](CCCNC(=N)N)C(=O)N[C@@H](CCCNC(=N)N)C(=O)N[C@@H](CCCNC(=N)N)C(=O)N[C@@H](CCCNC(=N)N)C(=O)OC)cc1)CCC=C(C)C` [Compound 64], the MIC with S. aureus ATCC29213 was 1.56 µg/mL (≈ 1.23 µM); in the data set with E. coli ATCC25922, 25 µg/mL (≈ 19.8 µM); against MRSA N315, 1.56 µg/mL (≈ 1.23 µM); against MRSA NCTC10442, 1.56 µg/mL (≈ 1.23 µM); in the data set with Gram-positive bacteria (summary of tables 1 and 2), 0.39 to 3.12 µg/mL (≈ 0.308 to 2.47 µM). Moreover, the “HC50 (concentration necessary to lyse 50% rabbit red blood cells)” value in the data set with rabbit red blood cells is “more than 400 μg/mL”.
With `C=C[C@](C)(/C=C/c1ccc(OCCCCNCCN(CCN)CCN)cc1)CCC=C(C)C` [Compound 29], the MIC against S. aureus ATCC29213 is 0.78 µg/mL (≈ 1.71 µM); in the data set with E. coli ATCC25922, 3.12 µg/mL (≈ 6.84 µM); in the data set with MRSA N315, 0.78 µg/mL (≈ 1.71 µM); in the data set on MRSA NCTC10442 it was 0.78 µg/mL (≈ 1.71 µM); in the data set with Gram-positive bacteria (summary of tables 1 and 2), 0.39 to 3.12 µg/mL (≈ 0.854 to 6.84 µM); with Gram-negative bacteria, 1.56 to 3.12 µg/mL (≈ 3.42 to 6.84 µM).
Consider `C=C[C@@](C)(/C=C/c1ccc(OCCCCN(C)CCCN(C)CCCNC)cc1)CCC=C(C)C` [Compound 27], for which the MIC was 1.56 µg/mL (≈ 3.22 µM) in the data set with S. aureus ATCC29213; 1.56 µg/mL (≈ 3.22 µM) with E. coli ATCC25922; 0.78 µg/mL (≈ 1.61 µM) in the data set with MRSA N315; 1.56 µg/mL (≈ 3.22 µM) with MRSA NCTC10442; 0.39 to 3.12 µg/mL (≈ 0.806 to 6.46 µM) in the data set on Gram-positive bacteria (summary of tables 1 and 2); 1.56 to 3.12 µg/mL (≈ 3.22 to 6.46 µM) in the data set with Gram-negative bacteria.
As to `C=C[C@@](C)(/C=C/c1ccc(OCCCCN2CCCNCCNCCCNCC2)cc1)CCC=C(C)C` [Compound 30], the MIC in the data set on S. aureus ATCC29213 was 0.78 µg/mL (≈ 1.53 µM); against E. coli ATCC25922, 3.12 µg/mL (≈ 6.12 µM); with MRSA N315, 0.78 µg/mL (≈ 1.53 µM); in the data set on MRSA NCTC10442, 0.78 µg/mL (≈ 1.53 µM); in the data set on Gram-positive bacteria (summary of tables 1 and 2) it was 0.39 to 3.12 µg/mL (≈ 0.763 to 6.12 µM); against Gram-negative bacteria, 1.56 to 3.12 µg/mL (≈ 3.05 to 6.12 µM).
Regarding `C=C[C@](C)(/C=C/c1ccc(OCC(=O)N[C@@H](CCCNC(=N)N)C(=O)N[C@@H](CCCNC(=N)N)C(=O)OC)cc1)CCC=C(C)C` [Compound 44], the MIC in the data set on S. aureus ATCC29213 is 0.78 µg/mL (≈ 1.22 µM); in the data set on E. coli ATCC25922, 3.12 µg/mL (≈ 4.88 µM); with MRSA N315, 0.78 µg/mL (≈ 1.22 µM); in the data set with MRSA NCTC10442 it was 1.56 µg/mL (≈ 2.43 µM); with Gram-positive bacteria, 0.39 to 3.12 µg/mL (≈ 0.609 to 4.88 µM); with Gram-negative bacteria, 1.56 to 3.12 µg/mL (≈ 2.43 to 4.88 µM).
